Test system: Mycobacterium tuberculosis variant bovis
Test: Antimycobacterial activity against Mycobacterium bovis
Type: functional, organism-based

| SMILES | IC50 |
| --- | --- |
| C/C=C(\C)C(=O)O[C@@H]1C[C@H]2C(=C1C)[C@@H]1OC(=O)[C@@](C)(O)[C@@]1(O)[C@@H](OC(=O)[C@H](C)CC)C[C@@]2(C)OC(C)=O | 27.3 µM |
| C/C=C(/C)C(=O)O[C@@H]1C[C@H]2C(=C1C)[C@@H]1OC(=O)[C@@](C)(O)[C@@]1(O)[C@@H](OC(=O)CCCCn1cc([C@]3(O)CC[C@H]4[C@@H]5CCc6cc(OC)ccc6[C@H]5CC[C@@]43C)nn1)C[C@]2(C)OC(C)=O | 10.6 µM |

Source: ChEMBL document CHEMBL4402560, “Sarco/Endoplasmic Reticulum Calcium ATPase Inhibitors: Beyond Anticancer Perspective” (J Med Chem, 2020)
